Target: T1, Human glucokinase (Homo sapiens, UniProt P35557)
T1 construct: the glucokinase polypeptide beginning with Ser-6 is obtained; GST (N, cleaved yes); made in house; host or cells: E. coli BL21
T1 sequence (P35557 6-464 isoform P35557-3 limits assumed): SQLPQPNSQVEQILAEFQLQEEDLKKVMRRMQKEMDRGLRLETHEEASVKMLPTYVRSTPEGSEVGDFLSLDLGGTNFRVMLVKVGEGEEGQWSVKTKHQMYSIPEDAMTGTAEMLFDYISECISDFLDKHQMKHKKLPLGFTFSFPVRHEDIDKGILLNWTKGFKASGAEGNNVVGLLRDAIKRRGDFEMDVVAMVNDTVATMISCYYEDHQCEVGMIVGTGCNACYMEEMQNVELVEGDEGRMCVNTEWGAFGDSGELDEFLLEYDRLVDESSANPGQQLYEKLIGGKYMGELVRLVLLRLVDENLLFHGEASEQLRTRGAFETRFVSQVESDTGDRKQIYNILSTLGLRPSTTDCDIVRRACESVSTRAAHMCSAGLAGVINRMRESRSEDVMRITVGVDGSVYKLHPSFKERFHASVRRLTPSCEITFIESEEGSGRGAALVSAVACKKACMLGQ
Experiment: Enzymatic test of glucokinase activators (coupled optical test)
Type: biochemical
Conditions: 5 mM glucose; for Concentration raising glucokinase activity by 50% (EC150): concentration of test compound which increases the enzymatic activity by 50% (0 μM = 100%), 25° C., 1 mM ATP, pH 7; for Fold induction: maximum fold stimulation: highest change in extinction in the concentration range 0.1-100 μM relative to change without test substance
From the text: Enzymatic Test of Glucokinase Activators
Human glucokinase is expressed as a fusion protein with glutathione S-transferase (GST) in E. coli BI21 and purified by affinity chromatography. […] is cleaved off by digestion with factor Xa, and the glucokinase polypeptide beginning with Ser-6 is obtained. The latter is purified chromatographically. At room temperature, a typical glucokinase preparation has a specific activity of 30 U/mg protein.
The activity of glucokinase and the effect of compounds on this activity are determined by a coupled optical test at 25° C. The test volume is 100 μl. The test composition is: 25 mM HEPES/NaOH (Merck; #110110) pH 7, 25 mM KCl (Merck; #04933), 2 mM MgCl2 (Merck; #05833), 1 mM dithiothreitol (Merck; #112013), 1 mM NAD (Sigma; #N1511), 5 mM glucose (Merck; #108337), 1 mM ATP (Sigma; #A2383), 0.1% (w/v) bovine serum albumin (Merck; #112018), 0.002 U glucokinase preparation and 3.2 U glucose 6-phosphate dehydrogenase (Sigma; #G8529). The mixture furthermore contains a test compound. The test compounds are in each case dissolved in 10 mM DMSO and are tested at final concentrations of 0 μM, 0.1 μM, 0.3 μM, 1 μM, 3 μM, 10 μM, 30 μM and 100 μM. The final concentration of DMSO in the test is 1% (v/v). The reaction is started by addition of ATP. The absorption of the mixture at 340 nm is determined immediately after the addition of ATP and then 25 min later using a multiwell plate photometer (from Labsystems, Multiskan Ascent). The change of the absorption during this period is calculated.
The crude data of the changes in extinction are transferred into a Microsoft Excel file. The value for 0 μM test compound is assigned to be 100%. Dose/activity curves are calculated using the program XL.Fit according to the instructions of the manufacturer (IDBS). The concentration of a test compound which increases the enzymatic activity by 50% is defined as EC150. The maximum fold stimulation corresponds to the ratio of the highest change in extinction in the concentration range of a test compound to the change of the absorption without test substance.

| Concentration raising glucokinase activity by 50% (EC150) [nM] | Fold induction | SMILES |
| --- | --- | --- |
| 4200 | 2.0 | CN1c2ccccc2S(=O)(=O)c2ccc(C(CC3CCOCC3)C(=O)Nc3nccs3)cc21 (centres unmarked) [Example 1, 2-(10-Methyl-5,5-dioxo-5,10-dihydrophenothiazin-2-yl)-3-(tetrahydropyran-4-yl)-N-thiazol-2-ylpropionamide] |
| 2100 | 4.4 | CN1c2ccccc2S(=O)(=O)c2ccc(C(CC3CCOCC3)C(=O)Nc3ccn(C)n3)cc21 (centres unmarked) [Example 5, 2-(10-Methyl-5,5-dioxo-5,10-dihydrophenothiazin-2-yl)-N-(1-methyl-1H-pyrazol-3-yl)-3-(tetrahydropyran-4-yl)propionamide] |
| 15500 | 2.1 | Cc1ccc(NC(=O)C(CC2CCOCC2)c2ccc3c(c2)N(C)c2ccccc2S3(=O)=O)nn1 (centres unmarked) [Example 6, 2-(10-Methyl-5,5-dioxo-5,10-dihydrophenothiazin-2-yl)-N-(6-methylpyridazin-3-yl)-3-(tetrahydropyran-4-yl)propionamide] |
| 2200 | 2.8 | CN1c2ccccc2S(=O)(=O)c2ccc(C(CC3CCCC3)C(=O)Nc3nccs3)cc21 (centres unmarked) [Example 9, 3-Cyclopentyl-2-(10-methyl-5,5-dioxo-5,10-dihydrophenothiazin-2-yl)-N-thiazol-2-yl-propionamide] |
| 900 | 5.0 | COc1ccc2nc(NC(=O)C(CC3CCOCC3)c3ccc4c(c3)N(C)c3ccccc3S4(=O)=O)sc2n1 (centres unmarked) [Example 15, N-(5-Methoxy-thiazolo[5,4-b]pyridin-2-yl)-2-(10-methyl-5,5-dioxo-5,10-dihydrophenothiazin-2-yl)-3-(tetrahydropyran-4-yl)propionamide] |
| 500 | 4.0 | CN1c2ccccc2S(=O)(=O)c2ccc(C(CC3CCC(=O)CC3)C(=O)Nc3ccn(C)n3)cc21 (centres unmarked) [Example 36, 2-(10-Methyl-5,5-dioxo-5,10-dihydrophenothiazin-2-yl)-N-(1-methyl-1H-pyrazol-3-yl)-3-(4-oxocyclohexyl)propionamide] |
| 700 | 3.9 | COc1ccc2nc(NC(=O)C(C[C@H]3CCC(=O)C3)c3ccc4c(c3)N(C)c3ccccc3S4(=O)=O)sc2n1 (stereo partly drawn) [Example 41, N-(5-Methoxythiazolo[5,4-b]pyridin-2-yl)-2-(10-methyl-5,5-dioxo-5,10-dihydrophenothiazin-2-yl)-3-((R)-3-oxocyclopentyl)propionamide] |
| 1200 | 3.6 | CCOC(=O)c1ccc2c(c1)S(=O)(=O)c1ccc(C(CC3CCC(=O)C3)C(=O)Nc3ccn(C)n3)cc1N2C (centres unmarked) [Example 42, Ethyl 10-methyl-8-[1-(1-methyl-1H-pyrazol-3-ylcarbamoyl)-2-(3-oxocyclopentyl)-ethyl]-5,5-dioxo-5,10-dihydrophenothiazine-3-carboxylate] |
| 600 | 5.0 | Cn1ccc(NC(=O)C(C[C@H]2CCC(=O)C2)c2ccc3c(c2)Nc2ccccc2S3(=O)=O)n1 (stereo partly drawn) [Example 46, 2-(5,5-Dioxo-5,10-dihydrophenothiazin-2-yl)-N-(1-methyl-1H-pyrazol-3-yl)-3-((R)-3-oxocyclopentyl)propionamide] |
| 1000 | 4.5 | Cn1ccc(NC(=O)C(CC2CC=C(F)CC2)c2ccc3c(c2)Nc2ccccc2S3(=O)=O)n1 (centres unmarked) [Example 54, 2-(5,5-Dioxo-5,10-dihydrophenothiazin-2-yl)-3-(4-fluorocyclohex-3-enyl)-N-(1-methyl-1H-pyrazol-3-yl)propionamide] |
